# Tests used:
# Test in all cases: Pre-emergence herbicidal activity, glasshouse pot test
# Type in all cases: in vivo
# Settings in all cases: 312 h, Rate 250 g/ha, evaluated after 13 days, 100=total damage to plant, 0=no damage to plant
# [1] = test system: Alopecurus myosuroides (ALOMY)
# Procedure: (§1) Seeds of a variety of test species were sown in standard soil in pots. After cultivation for one day (pre-emergence) or after 8 days cultivation (post-emergence) under controlled conditions in a glasshouse (at 24/16° C., day/night; 14 hours light; 65% humidity), the plants were sprayed with an aqueous spray solution derived from the formulation of the technical active ingredient in acetone/water (50:50) solution containing 0.5% Tween 20 (polyoxyethelyene sorbitan monolaurate, CAS RN 9005-64-5). The test plants were then grown in a glasshouse under controlled conditions in a glasshouse (at 24/16° C., day/night; 14 hours light; 65% humidity) and watered twice daily. After 13 days for pre and post-emergence, the test was evaluated (100=total damage to plant; 0=no damage to plant). Test Plants: Lolium perenne (LOLPE), Alopecurus myosuroides (ALOMY), Echinochloa crus-galli (ECHCG), and Avena fatua (AVEFA). Pre-Emergence Activity
# Lolium perenne (LOLPE) = test system: Lolium perenne (LOLPE)
# Procedure: as §1
# Avena fatua (AVEFA) = test system: Avena fatua (AVEFA)
# Procedure: as §1
# [2] = test system: Echinochloa crus-galli (ECHCG)
# Procedure: as §1
SMILES,pest or weed control at 250 g/ha [1],pest or weed control at 250 g/ha (Lolium perenne (LOLPE)),pest or weed control at 250 g/ha (Avena fatua (AVEFA)),pest or weed control at 250 g/ha [2]
CCc1cc(Oc2ccc(Cl)cc2Cl)ccc1C1=C(O)C(C)(C)OC(C)(C)C1=O [Compound A-2],20%,70%,0%,50%
CCc1cc(Oc2ccc(Cl)cc2F)ccc1C1=C(O)C(C)(C)OC(C)(C)C1=O [Compound A-3],20%,20%,10%,20%
CCc1cc(Oc2ccc(Cl)cc2)ccc1C1=C(O)C(C)(C)OC(C)(C)C1=O [Compound A-4],20%,60%,20%,60%
CCc1cc(Oc2ccc(Br)cc2)ccc1C1=C(O)C(C)(C)OC(C)(C)C1=O [Compound A-5],10%,30%,10%,40%
CCc1cc(Oc2ccc(F)cc2)ccc1C1=C(O)C(C)(C)OC(C)(C)C1=O [Compound A-6],60%,100%,30%,100%
"CCc1cc(Oc2ccc(Cl)c(F)c2)ccc1C1=C(O)C(C)(C)OC(C)(C)C1=O [Compound A-7, 4-[4-(4-chloro-3-fluorophenoxy)-2-ethylphenyl]-2,2,6,6-tetramethylpyran-3,5-dione]",40%,80%,20%,60%
CCc1cc(Oc2ncc(Cl)cc2F)ccc1C1=C(O)C(C)(C)OC(C)(C)C1=O [Compound A-8],40%,100%,30%,100%
"CCc1cc(Oc2ccc(C(F)(F)F)cn2)ccc1C1=C(O)C(C)(C)OC(C)(C)C1=O [Compound A-9, 4-[4-(5-trifluoromethylpyridin-2-yloxy)-2-ethylphenyl]-2,2,6,6-tetramethylpyran-3,5-dione]",20%,60%,0%,30%
"CCc1cc(Oc2cnc3cc(Cl)ccc3n2)ccc1C1=C(O)C(C)(C)OC(C)(C)C1=O [Compound A-10, 4-[4-(6-chloroquinoxalin-2-yloxy)-2-ethylphenyl]-2,2,6,6-tetramethylpyran-3,5-dione]",70%,100%,90%,100%
CCc1cc(Oc2ncc(C(F)(F)F)cc2Cl)ccc1C1=C(O)C(C)(C)OC(C)(C)C1=O [Compound A-11],90%,100%,90%,100%
Cc1cc(Oc2cnc3cc(Cl)ccc3n2)cc(C)c1C1=C(O)C(C)(C)OC(C)(C)C1=O [Compound A-14],30%,50%,10%,20%
Cc1cc(Oc2ncccc2Cl)cc(C)c1C1=C(O)CCCC1=O [Compound A-16],0%,0%,0%,0%

# Source: US9102642B2, “Herbicidally active cyclic diones and derivatives thereof, processes for their preparation, compositions, and methods of controlling weeds” (Syngenta Limited, priority 2009, dated 2015)
